We go through 17 molecules from US8735387B2, “Oxazolopyrimidines as Edg-1 receptor agonists” (Sanofi, priority 2008, dated 2014).

T1 sequence (P21453 whole entry): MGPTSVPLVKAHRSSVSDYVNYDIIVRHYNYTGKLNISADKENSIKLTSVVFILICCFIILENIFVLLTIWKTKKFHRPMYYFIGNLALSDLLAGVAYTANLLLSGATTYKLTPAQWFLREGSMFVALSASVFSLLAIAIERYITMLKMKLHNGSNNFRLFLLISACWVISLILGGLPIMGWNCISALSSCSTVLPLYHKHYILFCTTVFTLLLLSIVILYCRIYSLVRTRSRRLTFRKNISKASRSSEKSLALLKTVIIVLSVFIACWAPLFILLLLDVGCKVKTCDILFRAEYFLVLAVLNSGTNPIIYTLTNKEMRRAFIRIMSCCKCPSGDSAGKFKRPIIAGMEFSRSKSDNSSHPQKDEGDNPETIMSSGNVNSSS

One experiment addresses T1, human Edg-1 receptor (Homo sapiens, UniProt P21453).
T1 construct: expressed in transfected cells; membrane preparation
Briefly: GTP-γ-S assay using human Edg-1 receptors (scintillation proximity assay, membrane preparation from CHO Flp-In cell line). To be noted: example compound at 10 μM; relative to 10 μM S1P; GTP-γ-S SPA, human Edg-1 membranes. It is filed as biochemical. In short, it runs like this:
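Membranes came from Flp-In CHO cells constitutively expressing human Edg-1 carrying an N-terminal FLAG tag. Compound-induced receptor activation was read as GTP-γ-S binding in a scintillation proximity format.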
As to `CCOc1nc(Cc2ccc(Cl)cc2)nc2oc(-c3cc(C)c(O)c(C)c3)nc12` [Example 191], the “% Activation (Edg-1 receptor activation in percent of the activation by 10 μM S1P)” value came to 98%. On the same count and under the same terms, the same measure for `CCCOc1nc(Cc2ccc(Cl)cc2)nc2oc(-c3cc(C)c(OCC(O)CN(C)C)c(C)c3)nc12` (centres unmarked) [Example 192]: 60%. Still for that read-out and setting: in the case of `CCCOc1nc(Cc2ccc(Cl)cc2)nc2oc(-c3cc(C)c(OCC(O)CN4CCOCC4)c(C)c3)nc12` (centres unmarked) [Example 193] it was 114%; in that of `Cc1cc(-c2nc3c(OC(C)C)nc(Cc4ccc(Cl)cc4)nc3o2)cc(C)c1OCC(O)CN1CCOCC1` (centres unmarked) [Example 194], 98%. Turning to `CCCOc1nc(Cc2ccc(Cl)cc2)nc2oc(-c3ccc(Cl)nc3)nc12` [Example 201], the “% Activation (Edg-1 receptor activation in percent of the activation by 10 μM S1P)” value is listed as 68%. With `CCCOc1nc(CN2CC[C@H](F)C2)nc2oc(-c3cccc(F)c3)nc12` [Example 202], the “% Activation (Edg-1 receptor activation in percent of the activation by 10 μM S1P)” value was 109%. Still for that read-out and setting: the same measure for `CCCOc1nc(Cn2cnc(C#N)n2)nc2oc(-c3cccc(F)c3)nc12` [Example 203]: 79%.

For `CCCOc1nc(Cn2cncn2)nc2oc(-c3cccc(F)c3)nc12` [Example 204], the “% Activation (Edg-1 receptor activation in percent of the activation by 10 μM S1P)” value is 79%. Still for that read-out and setting: in the case of `CC(C)Oc1nc(CN2CCOCC2)nc2oc(-c3cccc(F)c3)nc12` [Example 205] it was 115%; in that of `CCCOc1nc(Cc2ccc(Cl)cc2)nc2oc(-c3cc(C)c(OCC(O)CNC4CCN(CC(C)C)CC4)c(C)c3)nc12` (centres unmarked) [Example 206], 67%; in that of `CCCOc1nc(Cc2ccc(Cl)cc2)nc2oc(-c3ccc(OCC(O)CN)c(Cl)c3)nc12` (centres unmarked) [Example 207], 302%.

Still in this experiment, the particulars now being: example compound at 10 μM; relative to 10 μM S1P; GTP-γ-S SPA, human Edg-1 membranes; read-out: % Activation (Edg-1 receptor activation in percent of the activation by 10 μM S1P).
For the molecule `CCCOc1nc(Cc2ccc(Cl)cc2)nc2oc(-c3cc(C)c(OCC(O)CNC(=O)c4ccccc4)c(C)c3)nc12` (centres unmarked) [Example 195, N-(3-{4-[5-(4-Chloro-benzyl)-7-propoxy-oxazolo[5,4-d]pyrimidin-2-yl]-2,6-dimethyl-phenoxy}-2-hydroxy-propyl)-benzamide], the activation at 10 µM was determined as 84%.

As for `CCOc1nc(Cc2ccc(Cl)cc2)nc2oc(-c3cc(C)c(OCC(O)CSc4nnc(C(C)C)[nH]4)c(C)c3)nc12` (centres unmarked) [Example 196, 1-{4-[5-(4-Chloro-benzyl)-7-ethoxy-oxazolo[5,4-d]pyrimidin-2-yl]-2,6-dimethyl-phenoxy}-3-(5-isopropyl-4H-[1,2,4]triazol-3-ylsulfanyl)-propan-2-ol], the activation at 10 µM was 83%. `CCOc1nc(Cc2ccc(Cl)cc2)nc2oc(-c3cc(C)c(OCC(O)CS(=O)(=O)c4nnc(C(C)C)[nH]4)c(C)c3)nc12` (centres unmarked) [Example 197, 1-{4-[5-(4-Chloro-benzyl)-7-ethoxy-oxazolo[5,4-d]pyrimidin-2-yl]-2,6-dimethyl-phenoxy}-3-(5-isopropyl-4H-[1,2,4]triazole-3-sulfonyl)-propan-2-ol]: the activation at 10 µM was determined as 119%. Still for that read-out and setting: in the case of `CCCOc1nc(Cc2ccc(Cl)cc2)nc2oc(-c3cc(C)c(OCC(=O)O)c(C)c3)nc12` [Example 198, {4-[5-(4-Chloro-benzyl)-7-propoxy-oxazolo[5,4-d]pyrimidin-2-yl]-2,6-dimethyl-phenoxy}-acetic acid] it was 111%; in that of `CCCOc1nc(Cc2ccc(Cl)cc2)nc2oc(-c3cc(C)c(OCC(=O)NCC(=O)O)c(C)c3)nc12` [Example 199, (2-{4-[5-(4-Chloro-benzyl)-7-propoxy-oxazolo[5,4-d]pyrimidin-2-yl]-2,6-dimethyl-phenoxy}-acetylamino)-acetic acid], 112%; in that of `CCCOc1nc(Cc2ccc(Cl)cc2)nc2oc(-c3cc(C)c(OCCCN4CCOCC4)c(C)c3)nc12` [Example 200, 5-(4-Chloro-benzyl)-2-[3,5-dimethyl-4-(3-morpholin-4-yl-propoxy)-phenyl]-7-propoxy-oxazolo[5,4-d]pyrimidine], 79%.
